System: patients diagnosed with AQP4-IgG positive NMOSD
Experiment: Clinical research of the compound of formula (I) in treating neuromyelitis optica spectrum disorder (NMOSD)
Type: in vivo, human
Description: Average annualized relapse rate (ARR)=total number of episodes of subjects/(number of subjects*observation time).
Example 1: Clinical Research of the Compound of Formula (I) in Treating Neuromyelitis Optica Spectrum Disorder (NMOSD)
Tablets of the compound of formula (I), specification: 100 mg/tablet.
1) Male or female from 18 to 75 years old (including 18 and 75 years old);
2) Patients diagnosed with AQP4-IgG positive NMOSD according to the 2015 IPND diagnostic criteria;
3) Requirements for history of relapse: 2 or more relapses of NMOSD requiring rescue therapy within 1 year before baseline, the rescue therapy can include IV glucocorticoid, plasma exchange, and/or intravenous immune globulin (IVIG);
4) Subjects must have been on stable treatment (if any) for more than 1 month before starting test drug treatment, defined as follows: • the amount of immunosuppressant (such as tacrolimus, azathioprine, mycophenolate) and/or oral corticosteroid must be stable or in the process of reduction, and the acute phase rescue therapy (such as IV glucocorticoid, plasma exchange, and/or intravenous immunoglobulin) must be completed for more than 1 month.
The test drug was administered to the qualified subjects in the morning on an empty stomach, once a day, one tablet at a time, and 100 mg per tablet.
At present, the study has completed the enrollment of all 10 subjects, and the average annualized relapse rate (ARR=the total number of episodes of subjects/(number of subjects*observation time)) of all subjects before enrollment was 2.1. By now, an annualized relapse rate of 0.7 for existing subjects after baseline medication has been observed. A patient with a 7-year history of NMOSD had severe symptoms (unable to stand) before participating in the trial. […] At the 7th week of medication, the patient could walk more than 20 meters with assistance, and could substantially take care of themself.

In the case of `CC#CC(=O)N1CC[C@@H](n2cc(-c3ccc(Oc4c(F)cccc4F)cc3)c3c(N)n[nH]c(=O)c32)C1` [compound of formula (I), (R)-4-amino-1-(1-(but-2-ynoyl)pyrrolidin-3-yl)-3-(4-(2,6-difluorophenoxy)phenyl)-1,6-dihydro-7H-pyrrolo[2,3-d]pyridazin-7-one], the “annualized relapse rate (ARR) after baseline medication” value (AQP4-IgG positive NMOSD subjects (10 enrolled), 100 mg tablet once a day, morning, empty stomach, average ARR before enrollment was 2.1, interim (by now)) is reported as 0.7, the mobility of patient (patient, 7-year history of NMOSD, unable to stand before trial, after 4 weeks of administration, could stand up and walk several steps with assistance) is reported as “significantly improved mobility” and the “walking distance with assistance” value (same patient, at the 7th week of medication, could substantially take care of themself) is reported as “more than 20 meters”.
